# From patent US8211854B2, “Methods for inhibiting protein kinases” (Schering Corporation, priority 2005, dated 2012)
# Read-outs that look alike come from different tables or passages of the source.
# Target: T1, His-CHK1 (Homo sapiens, UniProt O14757)
# T1 construct: fused on or other part: His tag
# T1 sequence (O14757 1-265 limits assumed): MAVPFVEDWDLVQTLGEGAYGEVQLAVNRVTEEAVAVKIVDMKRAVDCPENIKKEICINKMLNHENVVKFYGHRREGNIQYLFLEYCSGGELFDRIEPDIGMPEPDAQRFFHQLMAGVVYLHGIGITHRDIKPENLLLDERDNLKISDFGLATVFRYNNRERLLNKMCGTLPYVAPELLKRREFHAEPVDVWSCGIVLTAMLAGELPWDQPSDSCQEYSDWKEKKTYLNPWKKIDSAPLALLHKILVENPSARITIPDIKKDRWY
# Assay: CHK1 SPA Assay
# Format: biochemical
# [1] = read-out: CHK1 inhibitory activity (IC50)
# [2] = recombinant His-CHK1, biotinylated CDC25C peptide substrate, 1 μM ATP, 2 hours at room temperature, read-out: CHK1 inhibitory activity (IC50)
SMILES,IC50 [2],other results
CC#Cc1c(C2CCCNC2)nc2c(-c3cnn(C)c3)cnn2c1N (stereo not drawn),–,IC50 [1]: 45 nM
Cc1cc(Nc2cc(C3CCCNC3)nc3c(-c4cnn(C)c4)cnn23)sn1 (stereo not drawn),–,IC50: 7 nM
Cn1cc(-c2cnn3c(Nc4ccc(-n5ccnc5)cc4)cc(C4CCCNC4)nc23)cn1 (stereo not drawn),60 nM,–
Nc1c(Br)c(C2CCCNC2)nc2c(-c3ccoc3)cnn12 (stereo not drawn),25 nM,–
CN(C)c1cccc(Nc2cc(C3CCCNC3)nc3c(-c4cnn(C)c4)cnn23)c1 (stereo not drawn),250 nM,–
N#Cc1cc(-c2cnn3c(N)c(Br)c(C4CCCNC4)nc23)co1 (stereo not drawn),4 nM,–
Nc1c(Br)c(N2CC[C@H](N)C2)nc2c(-c3ccsc3)cnn12,430 nM,–
Cc1cc(Nc2cc(C3CCCNC3)nc3c(-c4coc(C#N)c4)cnn23)sn1 (stereo not drawn),7 nM,–
Cn1cc(-c2cnn3c(Nc4cccc(S(N)(=O)=O)c4)cc(C4CCCNC4)nc23)cn1 (stereo not drawn),390 nM,–
Cn1cc(-c2cnn3c(N)c(I)c(C4CCCNC4)nc23)cn1 (stereo not drawn),–,IC50 [1]: 3 nM
Cc1cc(Nc2cc(N3CC[C@@H](N)C3)nc3c(-c4cnn(C)c4)cnn23)sn1,50 nM,–
Cn1cc(-c2cnn3c(N)c(Br)c(CCCN)nc23)cn1,11 nM,–
Cn1cc(-c2cnn3c(N)c(Br)c(C4CNCCS4)nc23)cn1 (stereo not drawn),6 nM,–
Cn1cc(-c2cnn3c(N)cc(CC4CCNCC4)nc23)cn1,400 nM,–
Cn1cc(-c2cnn3c(N)c(-c4cccs4)c(C4CCCNC4)nc23)cn1 (stereo not drawn),90 nM,–
N#Cc1ccc(-c2cnn3c(N)cc(C4CCCNC4)nc23)cc1 (stereo not drawn),120 nM,–
Cn1cc(-c2cnn3c(N)c(Br)c(CC4CCCNC4)nc23)cn1 (stereo not drawn),–,IC50: 9 nM
Cn1cc(-c2cnn3c(Nc4ccncc4)cc(C4CCCNC4)nc23)cn1 (stereo not drawn),100 nM,–
